In PubChem BioAssay (NCI):
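Results reflect a 48-hour exposure of cells in 96-well plates to compound at five concentrations. GI50: concentration for 50% inhibition of growth. The concentration for full growth arrest is given as TGI.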

Tests used:
Assay in all cases: NCI-60 cell line screen, 48 h
[1] = system: HCT-15 colon
[2] = system: RXF 393 renal
[3] = system: MDA-MB-435
[4] = system: HL-60(TB) leukemia
[5] = system: CCRF-CEM leukemia
[6] = system: HOP-62 NSCLC
[7] = system: U251 CNS
[8] = system: MCF7 breast
[9] = system: NCI-H460 lung
[10] = system: NCI-H23 lung
[11] = system: 786-0 renal
[12] = system: EKVX NSCLC
[13] = system: UACC-257 melanoma
[14] = system: KM12 colon
[15] = system: M14 melanoma
[16] = system: SF-268 CNS
[17] = system: NCI/ADR-RES ovarian
[18] = system: BT-549 breast
[19] = system: MOLT-4 leukemia
[20] = system: SF-539 CNS
[21] = system: CAKI-1 renal
[22] = system: HS 578T breast
[23] = system: LOX IMVI melanoma
[24] = system: A549 NSCLC
[25] = system: MDA-MB-231 breast
[26] = system: ACHN renal
[27] = system: SR leukemia
[28] = system: T-47D breast
[29] = system: IGROV1 ovarian
[30] = system: DU-145 prostate
[31] = system: RPMI-8226 leukemia
[32] = system: HT29 colon
[33] = system: NCI-H522 lung
[34] = system: HCC-2998 colon
[35] = system: SW-620 colon
[36] = system: COLO 205 colon
[37] = system: OVCAR-3 ovarian
[38] = system: UACC-62 melanoma
[39] = system: SNB-75 CNS
[40] = system: K-562 leukemia
[41] = system: HCT-116 colon
[42] = system: SF-295 CNS
[43] = system: OVCAR-8 ovarian
[44] = system: SN12C renal
[45] = system: OVCAR-5 ovarian
[46] = system: SK-MEL-5 melanoma
[47] = system: MALME-3M melanoma
[48] = system: SK-MEL-2 melanoma
[49] = system: UO-31 renal
[50] = system: TK-10 renal
[51] = system: SK-OV-3 ovarian
[52] = system: NCI-H226 lung
[53] = system: A498 renal
[54] = system: OVCAR-4 ovarian
[55] = system: SNB-19 CNS
[56] = system: PC-3 prostate
[57] = system: SK-MEL-28 melanoma

SMILES: CN1CCN(Cc2ccc(NC(=O)c3cncc(C#Cc4cnc5ccc(N6CCOCC6)nn45)c3)cc2C(F)(F)F)CC1
- GI50 [1]: 112 nM
- TGI [1]: 375 nM
- GI50 [2]: 78.6 nM
- TGI [2]: 175 nM
- GI50 [3]: 53.3 nM
- TGI [3]: 231 nM
- GI50 [4]: 23.9 nM
- TGI [4]: 224 nM
- GI50 [5]: 125 nM
- TGI [5]: 5980 nM
- GI50 [6]: 100 nM
- TGI [6]: 328 nM
- GI50 [7]: 141 nM
- TGI [7]: 558 nM
- GI50 [8]: 26.9 nM
- TGI [8]: 442 nM
- GI50 [9]: 84.5 nM
- TGI [9]: 254 nM
- GI50 [10]: 79.6 nM
- TGI [10]: 325 nM
- GI50 [11]: 144 nM
- TGI [11]: 433 nM
- GI50 [12]: 101 nM
- TGI [12]: 564 nM
- GI50 [13]: 160 nM
- TGI [13]: 936 nM
- GI50 [14]: 5 nM
- TGI [14]: 243 nM
- GI50 [15]: 50.6 nM
- TGI [15]: 122 nM
- GI50 [16]: 82.3 nM
- TGI [16]: 218 nM
- GI50 [17]: 814 nM
- TGI [17]: 3750 nM
- GI50 [18]: 259 nM
- TGI [18]: 763 nM
- GI50 [19]: 95.8 nM
- TGI [19]: 1460 nM
- GI50 [20]: 60 nM
- TGI [20]: 205 nM
- GI50 [21]: 51.9 nM
- TGI [21]: 174 nM
- GI50 [22]: 85.3 nM
- TGI [22]: 353 nM
- GI50 [23]: 59.3 nM
- TGI [23]: 142 nM
- GI50 [24]: 121 nM
- TGI [24]: 555 nM
- GI50 [25]: 33 nM
- TGI [25]: 204 nM
- GI50 [26]: 131 nM
- TGI [26]: 510 nM
- GI50 [27]: 97.2 nM
- TGI [27]: 367 nM
- GI50 [28]: 199 nM
- TGI [28]: 2620 nM
- GI50 [29]: 46.8 nM
- TGI [29]: 430 nM
- GI50 [30]: 93.6 nM
- TGI [30]: 398 nM
- GI50 [31]: 153 nM
- TGI [31]: 553 nM
- GI50 [32]: 31.3 nM
- TGI [32]: 392 nM
- GI50 [33]: 68 nM
- TGI [33]: 161 nM
- GI50 [34]: 130 nM
- TGI [34]: 474 nM
- GI50 [35]: 49.7 nM
- TGI [35]: 378 nM
- GI50 [36]: 53.6 nM
- TGI [36]: 129 nM
- GI50 [37]: 99.4 nM
- TGI [37]: 407 nM
- GI50 [38]: 86.3 nM
- TGI [38]: 419 nM
- GI50 [39]: 47.7 nM
- TGI [39]: 155 nM
- GI50 [40]: 5 nM
- TGI [40]: 1900 nM
- GI50 [41]: 26.3 nM
- TGI [41]: 342 nM
- GI50 [42]: 140 nM
- TGI [42]: 686 nM
- GI50 [43]: 134 nM
- TGI [43]: 541 nM
- GI50 [44]: 49.5 nM
- TGI [44]: 300 nM
- GI50 [45]: 85.8 nM
- TGI [45]: 548 nM
- GI50 [46]: 225 nM
- TGI [46]: 814 nM
- GI50 [47]: 37.2 nM
- TGI [47]: 153 nM
- GI50 [48]: 68 nM
- TGI [48]: 144 nM
- GI50 [49]: 135 nM
- TGI [49]: 359 nM
- GI50 [50]: 79.9 nM
- TGI [50]: 229 nM
- GI50 [51]: 144 nM
- TGI [51]: 405 nM
- GI50 [52]: 23.9 nM
- TGI [52]: 320 nM
- GI50 [53]: 97.5 nM
- TGI [53]: 189 nM
- GI50 [54]: 99.1 nM
- TGI [54]: 543 nM
- GI50 [55]: 163 nM
- TGI [55]: 686 nM
- GI50 [56]: 145 nM
- TGI [56]: 1040 nM
- GI50 [57]: 122 nM
- TGI [57]: 433 nM
